This passage reports target mRNA knockdown results from the OligoGym collection.

HELM strings list units from the 5' end as sugar, base in round brackets, then linkage (d deoxyribose, r ribose, m 2'-O-methyl, p phosphodiester). Strings are as the collection lists them, not checked against the first reports. ss, as = sense and antisense strand; [lna] = locked nucleic acid (LNA); [una] = unlocked nucleic acid; [hna] = hexitol nucleic acid; [fl2r] = 2'-fluoro
Further: test system not given here.

The conditions of this data set: siRNA.
“RNA1{r(G)p.r(U)p.r(C)p.m(U)p.r(A)p.r(U)p.r(G)p.r(C)p.r(C)p.r(A)p.r(A)p.r(G)p.r(A)p.r(A)p.r(G)p.r(G)p.r(G)p.r(A)p.r(G)p.r(T)p.r(T)}|RNA2{r(C)p.r(U)p.r(C)p.r(C)p.r(C)p.r(U)p.r(U)p.r(C)p.r(U)p.r(U)p.r(G)p.r(G)p.r(C)p.r(A)p.m(U)p.r(A)p.r(G)p.r(A)p.r(C)p.r(T)p.r(T)}$$$RNA1{StrandType:ss}|RNA2{StrandType:as}$” returned a target mRNA knockdown of 76%.
On to “RNA1{r(C)p.r(C)p.r(U)p.r(C)p.r(G)p.r(G)p.r(A)p.r(G)p.r(A)p.r(G)p.r(U)p.r(U)p.r(C)p.m(U)p.r(A)p.r(C)p.r(U)p.r(C)p.r(U)p.r(T)p.r(T)}|RNA2{r(A)p.r(G)p.r(A)p.r(G)p.m(U)p.r(A)p.r(G)p.r(A)p.r(A)p.r(C)p.r(U)p.r(C)p.r(U)p.r(C)p.r(C)p.r(G)p.r(A)p.r(G)p.r(G)p.r(T)p.r(T)}$$$RNA1{StrandType:ss}|RNA2{StrandType:as}$”, for which the target mRNA knockdown was found to be 85%.
The result for “RNA1{r(C)p.r(U)p.r(U)p.r(A)p.r(C)p.r(G)p.r(C)p.r(U)p.r(G)p.r(A)p.r(G)p.r(U)p.r(A)p.r(C)p.r(U)p.r(U)p.r(C)p.r(G)p.r(A)p.r(T)p.r(T)}|RNA2{r(U)p.r(C)p.r(G)p.r(A)p.r(A)p.r(G)p.r(U)p.r(A)p.r(C)p.r(U)p.r(C)p.r(A)p.r(G)p.[lna](C)p.r(G)p.r(U)p.r(A)p.r(A)p.r(G)p.r(T)p.r(T)}$$$RNA1{StrandType:ss}|RNA2{StrandType:as}$” reads 43%; that for “RNA1{r(A)p.r(G)p.[fl2r](U)p.r(A)p.r(A)p.[fl2r](U)p.[fl2r](C)p.[fl2r](C)p.r(G)p.r(G)p.r(A)p.[fl2r](C)p.[fl2r](U)p.[fl2r](C)p.r(A)p.r(A)p.[fl2r](C)p.[fl2r](U)p.[fl2r](C)p.r(T)p.r(T)}|RNA2{r(G)p.r(A)p.r(G)p.r(U)p.r(U)p.r(G)p.r(A)p.r(G)p.r(U)p.r(C)p.r(C)p.r(G)p.r(G)p.r(A)p.r(U)p.r(U)p.r(A)p.r(C)p.r(U)p.r(T)p.r(T)}$$$RNA1{StrandType:ss}|RNA2{StrandType:as}$”, 59%.
As for “RNA1{r(G)p.r(A)p.r(C)p.r(G)p.r(U)p.r(A)p.r(A)p.r(A)p.r(C)p.r(G)p.r(G)p.r(C)p.r(C)p.r(A)p.r(C)p.r(A)p.r(A)p.r(G)p.r(U)p.[lna](T)p.[lna](C)}|RNA2{r(A)p.r(C)p.r(U)p.r(U)p.r(G)p.r(U)p.r(G)p.r(G)p.r(C)p.r(C)p.r(G)p.r(U)p.r(U)p.r(U)p.r(A)p.r(C)p.r(G)p.r(U)p.r(C)p.r(G)p.r(C)}$$$RNA1{StrandType:ss}|RNA2{StrandType:as}$”, the figure is 87.4%.
The result for “RNA1{r(A)p.m(U)p.r(A)p.r(C)p.r(U)p.m(U)p.m(G)p.r(G)p.r(C)p.r(G)p.r(G)p.r(G)p.m(C)p.r(U)p.r(C)p.r(U)p.r(U)p.r(U)p.r(C)p.r(T)p.r(T)}|RNA2{r(G)p.r(A)p.r(A)p.r(A)p.r(G)p.r(A)p.r(G)p.r(C)p.r(C)p.r(C)p.r(G)p.r(C)p.m(C)p.r(A)p.r(A)p.r(G)p.m(U)p.r(A)p.r(U)p.r(T)p.r(T)}$$$RNA1{StrandType:ss}|RNA2{StrandType:as}$” reads 70%; that for “RNA1{m(A)p.r(A)p.m(A)p.r(C)p.m(C)p.r(U)p.m(C)p.r(A)p.m(G)p.r(C)p.m(C)p.r(C)p.m(U)p.r(A)p.m(A)p.r(C)p.m(G)p.r(G)p.m(U)p.r(T)p.r(T)}|RNA2{r(A)p.r(C)p.r(C)p.r(G)p.r(U)p.r(U)p.r(A)p.r(G)p.r(G)p.r(G)p.r(C)p.r(U)p.r(G)p.r(A)p.r(G)p.r(G)p.r(U)p.r(U)p.r(U)p.r(T)p.r(T)}$$$RNA1{StrandType:ss}|RNA2{StrandType:as}$”, 51%.
“RNA1{r(G)p.r(U)p.r(A)p.r(U)p.r(G)p.r(A)p.r(C)p.r(C)p.r(G)p.r(A)p.r(C)p.r(U)p.r(A)p.r(C)p.r(G)p.r(C)p.r(G)p.r(U)p.r(A)p.r(T)p.r(T)}|RNA2{r(U)p.r(U)p.r(C)p.r(A)p.r(G)p.r(U)p.r(G)p.r(U)p.r(G)p.[una](A)p.r(U)p.r(G)p.r(A)p.r(C)p.r(A)p.r(C)p.r(U)p.r(U)p.r(G)p.r(T)p.r(T)}$$$RNA1{StrandType:ss}|RNA2{StrandType:as}$” gave a target mRNA knockdown of 23%.
As for “RNA1{r(G)p.r(A)p.r(C)p.r(G)p.r(U)p.r(A)p.r(A)p.r(A)p.r(C)p.r(G)p.r(G)p.r(C)p.r(C)p.r(A)p.r(C)p.r(A)p.r(A)p.r(G)p.[hna](U)p.[hna](U)p.r(C)}|RNA2{r(A)p.r(C)p.[lna](T)p.r(U)p.r(G)p.[lna](T)p.r(G)p.r(G)p.r(C)p.r(C)p.r(G)p.r(U)p.r(U)p.[lna](T)p.r(A)p.r(C)p.r(G)p.[lna](T)p.r(C)p.[lna](G)p.[lna](C)}$$$RNA1{StrandType:ss}|RNA2{StrandType:as}$”, the figure is 13.3%.
The result for “RNA1{r(G)p.r(A)p.r(C)p.r(G)p.[hna](U)p.r(A)p.r(A)p.[hna](A)p.r(C)p.r(G)p.[hna](G)p.r(C)p.r(C)p.[hna](A)p.r(C)p.r(A)p.r(A)p.r(G)p.r(U)p.r(U)p.d(T)}|RNA2{r(A)p.r(C)p.[lna](T)p.r(U)p.r(G)p.[lna](T)p.r(G)p.r(G)p.r(C)p.r(C)p.r(G)p.r(U)p.r(U)p.[lna](T)p.r(A)p.r(C)p.r(G)p.[lna](T)p.r(C)p.[lna](G)p.[lna](C)}$$$RNA1{StrandType:ss}|RNA2{StrandType:as}$” reads 8.9%; that for “RNA1{r(G)p.r(A)p.r(C)p.r(G)p.r(U)p.r(A)p.r(A)p.r(A)p.r(C)p.r(G)p.r(G)p.r(C)p.r(C)p.r(A)p.r(C)p.r(A)p.r(A)p.r(G)p.r(U)p.[lna](T)p.[lna](C)}|RNA2{r(A)p.r(C)p.[lna](T)p.r(U)p.r(G)p.[lna](T)p.r(G)p.r(G)p.r(C)p.r(C)p.r(G)p.r(U)p.r(U)p.[lna](T)p.r(A)p.r(C)p.r(G)p.[lna](T)p.r(C)p.[lna](G)p.[lna](C)}$$$RNA1{StrandType:ss}|RNA2{StrandType:as}$”, 3%.
The result for “RNA1{r(U)p.r(C)p.r(C)p.r(C)p.r(U)p.r(U)p.r(C)p.r(C)p.r(A)p.r(C)p.r(C)p.r(G)p.r(C)p.r(C)p.r(A)p.m(U)p.r(A)p.r(U)p.r(U)p.r(T)p.r(T)}|RNA2{r(A)p.r(A)p.m(U)p.r(A)p.r(U)p.r(G)p.r(G)p.r(C)p.r(G)p.r(G)p.r(U)p.r(G)p.r(G)p.r(A)p.r(A)p.r(G)p.r(G)p.r(G)p.r(A)p.r(T)p.r(T)}$$$RNA1{StrandType:ss}|RNA2{StrandType:as}$” reads 49%; that for “RNA1{r(A)p.r(U)p.r(C)p.r(U)p.r(G)p.r(A)p.r(A)p.r(G)p.r(A)p.r(A)p.r(G)p.r(G)p.r(A)p.r(G)p.r(A)p.r(A)p.r(A)p.r(A)p.r(A)p.r(T)p.r(T)}|RNA2{r(U)p.r(U)p.r(U)p.r(U)p.r(U)p.r(C)p.r(U)p.r(C)p.r(C)p.r(U)p.r(U)p.r(C)p.r(U)p.r(U)p.r(C)p.r(A)p.r(G)p.r(A)p.r(U)p.[lna](T)p.[lna](T)}$$$RNA1{StrandType:ss}|RNA2{StrandType:as}$”, 90%.
The substance “RNA1{d(G)p.d(C)p.d(A)p.d(G)p.d(C)p.d(A)p.d(C)p.d(G)p.d(A)p.d(C)p.d(U)p.d(U)p.d(C)p.d(U)p.d(U)p.d(C)p.d(A)p.d(A)p.d(G)p.r(T)p.r(T)}|RNA2{r(C)p.r(U)p.r(U)p.r(G)p.r(A)p.r(A)p.r(G)p.r(A)p.r(A)p.r(G)p.r(U)p.r(C)p.r(G)p.r(U)p.r(G)p.r(C)p.r(U)p.r(G)p.r(C)p.r(T)p.r(T)}$$$RNA1{StrandType:ss}|RNA2{StrandType:as}$” displayed a target mRNA knockdown of 38%.
